The experiment deals with Gastrin-releasing peptide receptor (Rattus norvegicus) (UniProt P52500). In words: Binding affinity to rat pancreatic acini GRPR.

The values that follow come from ChEMBL document CHEMBL3399937, “(18)F-AmBF3-MJ9: a novel radiofluorinated bombesin derivative for prostate cancer imaging” (Bioorg Med Chem, 2015).

The structures appear in SMILES notation.

Chain of Gastrin-releasing peptide receptor (Rattus norvegicus) (P52500 whole entry): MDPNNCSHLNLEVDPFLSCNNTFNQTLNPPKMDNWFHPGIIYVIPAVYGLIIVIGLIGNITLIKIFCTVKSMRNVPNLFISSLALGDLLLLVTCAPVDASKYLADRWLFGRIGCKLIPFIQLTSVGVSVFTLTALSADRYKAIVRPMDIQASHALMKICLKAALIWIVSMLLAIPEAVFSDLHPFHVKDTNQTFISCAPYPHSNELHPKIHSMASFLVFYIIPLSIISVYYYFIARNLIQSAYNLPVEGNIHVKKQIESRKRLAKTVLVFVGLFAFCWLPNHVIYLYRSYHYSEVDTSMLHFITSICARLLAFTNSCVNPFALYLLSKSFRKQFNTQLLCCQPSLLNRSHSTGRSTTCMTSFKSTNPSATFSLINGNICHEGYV

`CC(C)C[C@H](NC(=O)C[C@H](O)[C@H](CC(C)C)NC(=O)[C@H](Cc1cnc[nH]1)NC(=O)CNC(=O)[C@@H](NC(=O)[C@H](C)NC(=O)[C@H](Cc1c[nH]c2ccccc12)NC(=O)[C@H](CCC(N)=O)NC(=O)[C@H](N)Cc1ccccc1)C(C)C)C(N)=O` gave an Activity of 0.9 nM.
